Data taken from US20240277698A1, “METHODS OF USING ALDOSTERONE SYNTHASE INHIBITORS” (CINCOR PHARMA, INC., priority 2021, published 2024).
Where two headings read alike, the source gives them in different places.

Assays:
[1] = biological target: T1, CYP11B1 (Homo sapiens, UniProt P15538); assay: SAD study: plasma cortisol, 11-deoxycortisol and 11-DOC after Cortrosyn challenge; format: in vivo
T1 construct: endogenous in cells; host or cells: adrenal cortex of healthy human subjects (in vivo, oral dosing)
T1 sequence (P15538 25-503): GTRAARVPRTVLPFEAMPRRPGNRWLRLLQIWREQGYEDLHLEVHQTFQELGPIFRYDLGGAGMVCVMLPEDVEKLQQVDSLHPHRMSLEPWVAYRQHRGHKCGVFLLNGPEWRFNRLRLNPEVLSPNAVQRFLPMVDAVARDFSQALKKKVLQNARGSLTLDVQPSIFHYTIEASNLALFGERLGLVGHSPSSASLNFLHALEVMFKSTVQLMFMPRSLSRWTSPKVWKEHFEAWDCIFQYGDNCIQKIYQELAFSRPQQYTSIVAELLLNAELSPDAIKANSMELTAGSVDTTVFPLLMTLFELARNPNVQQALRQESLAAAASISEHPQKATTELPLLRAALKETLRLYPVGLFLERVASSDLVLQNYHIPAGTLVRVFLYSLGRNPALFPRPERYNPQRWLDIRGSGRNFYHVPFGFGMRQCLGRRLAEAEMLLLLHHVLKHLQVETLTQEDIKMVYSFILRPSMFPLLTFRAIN
Procedure: Single doses of (R)-compound 1 reduced plasma and urine aldosterone levels by approximately 85% to 90% in a dose-dependent manner, consistently reaching a maximum effect at a dose of 10 mg (R)-compound 1 under the different conditions tested (Cortrosyn® challenge, standing, normal salt diet, and low salt diet conditions). No change in plasma cortisol levels was apparent across the full dose range tested (0 to 360 mg (R)-compound 1).
A maximum effect on aldosterone reduction was consistently achieved at a dose of 10 mg under the different conditions tested in healthy subjects (Cortrosyn® challenge, standing, normal salt diet, and low salt diet conditions). No change in plasma cortisol levels after the Cortrosyn challenge was apparent across the full dose range tested (0 to 360 mg of (R)-compound 1).

[2] = MAD study: urine pharmacokinetics; format: in vivo, human; set-up: CL renal: unit not given here; settings: for Ae, D 1 (amount excreted in urine, Day 1) / Ae, D 10 (amount excreted in urine, Day 10) / Fe, D 1 (fraction of dose excreted renally, Day 1) / Fe, D 10 (fraction of dose excreted renally, Day 10) / CL renal: mean; for CL renal: human, urine, oral
Description: For each subject, the study consisted of: • A screening period of up to 28 days; • A 5-day inpatient run-in period during which subjects adhered to a controlled, standardized diet and underwent baseline PD assessments; • A 15-day inpatient treatment period, during which subjects received (R)-compound 1 or placebo once daily for 10 days while adhering to a controlled, standardized diet, followed by PK and PD sampling over an additional 5 days; and • A follow-up visit 3 days (1 day) after discharge from the clinical unit. • A cortisol stimulation test (Cohorts 1 and 2 only) and standing aldosterone assessment (all cohorts) were performed on Days 1 and 10. Serial blood samples for PK and PD were obtained prior to and at specified time points over 24 hours after dosing on Day 1 as well as prior to and at specified time points over 120 hours after dosing on Day 10. In addition, blood samples for PK were collected prior to dosing on Days 8 and 9. Urine for PK and PD measurements was collected over 24 hours starting just prior to dosing on Day 1 as well as over 120 hours starting just prior to dosing on Day 10.

SMILES: CCC(=O)N[C@@H]1CCCc2c(-c3ccc4c(c3)CCC(=O)N4C)cncc21 [(R)-Compound 1, (R)—N-(4-(1-methyl-2-oxo-1,2,3,4-tetrahydroquinolin-6-yl)-5,6,7,8-tetrahydroisoquinolin-8-yl)propionamide]
- plasma cortisol levels ([1]; full dose range tested (0 to 360 mg), Cortrosyn challenge): No change
- doses at which 11-DOC increased ([1]; single doses): ≥ 90 mg
- 11-deoxycortisol ([1]; single doses up to 360 mg): increases in 11-deoxycortisol (at doses of 180 mg and 360 mg)
- Ae, D 1 (amount excreted in urine, Day 1) ([2]; 0.5 mg QD, normal salt diet): 39952.889 ng
- Ae, D 10 (amount excreted in urine, Day 10) ([2]; 0.5 mg QD, normal salt diet): 168181.917 ng
- Fe, D 1 (fraction of dose excreted renally, Day 1) ([2]; 0.5 mg QD, normal salt diet): 7.991%
- Fe, D 10 (fraction of dose excreted renally, Day 10) ([2]; 0.5 mg QD, normal salt diet): 33.636%
- Ae, D 1 (amount excreted in urine, Day 1) ([2]; 1.5 mg QD, normal salt diet): 115762.122 ng
- Ae, D 10 (amount excreted in urine, Day 10) ([2]; 1.5 mg QD, normal salt diet): 459968.526 ng
- Fe, D 1 (fraction of dose excreted renally, Day 1) ([2]; 1.5 mg QD, normal salt diet): 7.717%
- Fe, D 10 (fraction of dose excreted renally, Day 10) ([2]; 1.5 mg QD, normal salt diet): 30.665%
- Ae, D 1 (amount excreted in urine, Day 1) ([2]; 2.5 mg QD, low salt diet): 1687233.672 ng
- Ae, D 10 (amount excreted in urine, Day 10) ([2]; 2.5 mg QD, low salt diet): 766791.190 ng
- Fe, D 1 (fraction of dose excreted renally, Day 1) ([2]; 2.5 mg QD, low salt diet): 6.749%
- Fe, D 10 (fraction of dose excreted renally, Day 10) ([2]; 2.5 mg QD, low salt diet): 30.672%
- Ae, D 1 (amount excreted in urine, Day 1) ([2]; 2.5 mg QD, normal salt diet): 270541.533 ng
- Ae, D 10 (amount excreted in urine, Day 10) ([2]; 2.5 mg QD, normal salt diet): 826482.355 ng
- Fe, D 1 (fraction of dose excreted renally, Day 1) ([2]; 2.5 mg QD, normal salt diet): 10.822%
- Fe, D 10 (fraction of dose excreted renally, Day 10) ([2]; 2.5 mg QD, normal salt diet): 33.059%
- Ae, D 1 (amount excreted in urine, Day 1) ([2]; 5.0 mg QD, low salt diet): 317339.306 ng
- Ae, D 10 (amount excreted in urine, Day 10) ([2]; 5.0 mg QD, low salt diet): 1677304.469 ng
- Fe, D 1 (fraction of dose excreted renally, Day 1) ([2]; 5.0 mg QD, low salt diet): 6.347%
- Fe, D 10 (fraction of dose excreted renally, Day 10) ([2]; 5.0 mg QD, low salt diet): 33.546%
- dose recovered unchanged in the urine, average ([2]; MAD study): approximately 7%
- CL renal ([2]; 0.5 mg, 0.5 mg QD, normal salt diet, read-out: CLR, D 1 (renal clearance, Day 1) (converted)): 0.00888
- CL renal ([2]; 0.5 mg, 0.5 mg QD, normal salt diet, read-out: CLR, D 10 (renal clearance, Day 10) (converted)): 0.00822
- CL renal ([2]; 1.5 mg, 1.5 mg QD, normal salt diet, read-out: CLR, D 1 (renal clearance, Day 1) (converted)): 0.00958
- CL renal ([2]; 1.5 mg, 1.5 mg QD, normal salt diet, read-out: CLR, D 10 (renal clearance, Day 10) (converted)): 0.00733
- CL renal ([2]; 2.5 mg, 2.5 mg QD, low salt diet, read-out: CLR, D 1 (renal clearance, Day 1) (converted)): 0.00797
- CL renal ([2]; 2.5 mg, 2.5 mg QD, low salt diet, read-out: CLR, D 10 (renal clearance, Day 10) (converted)): 0.0085
- CL renal ([2]; 2.5 mg, 2.5 mg QD, normal salt diet, read-out: CLR, D 1 (renal clearance, Day 1) (converted)): 0.0136
- CL renal ([2]; 2.5 mg, 2.5 mg QD, normal salt diet, read-out: CLR, D 10 (renal clearance, Day 10) (converted)): 0.0111
- CL renal ([2]; 5 mg, 5.0 mg QD, low salt diet, read-out: CLR, D 1 (renal clearance, Day 1) (converted)): 0.00815
- CL renal ([2]; 5 mg, 5.0 mg QD, low salt diet, read-out: CLR, D 10 (renal clearance, Day 10) (converted)): 0.00822
